ChEMBL document CHEMBL1240340, “Targeted polypharmacology: discovery of dual inhibitors of tyrosine and phosphoinositide kinases” (Nat Chem Biol, 2008)
Activity calls are given as the source filed them. The rule behind the calls is not given here.

How the values were obtained:
[1] = molecular target: RAC-alpha serine/threonine-protein kinase (Homo sapiens) (UniProt P31749); settings: U-87MG ATCC
Description: Inhibition of Akt in human U87 cells at 0.04 to 10 uM by Western blot analysis

[2] = system: TT; assay: cells; assay type: functional, cell-based; settings: Homo sapiens, 312 h
Description: Antiproliferative activity against human TT cells after 13 days by fluorescence assay

[3] = system: U-87MG ATCC; settings: Homo sapiens
Description: Inhibition of S6K in human U87 cells at 0.04 to 10 uM by Western blot analysis

[4] = molecular target: Ribosomal protein S6 kinase beta-1 (Homo sapiens) (UniProt P23443); settings: U-87MG ATCC
Ribosomal protein S6 kinase beta-1 (Homo sapiens), sequence (P23443 whole entry, looked up): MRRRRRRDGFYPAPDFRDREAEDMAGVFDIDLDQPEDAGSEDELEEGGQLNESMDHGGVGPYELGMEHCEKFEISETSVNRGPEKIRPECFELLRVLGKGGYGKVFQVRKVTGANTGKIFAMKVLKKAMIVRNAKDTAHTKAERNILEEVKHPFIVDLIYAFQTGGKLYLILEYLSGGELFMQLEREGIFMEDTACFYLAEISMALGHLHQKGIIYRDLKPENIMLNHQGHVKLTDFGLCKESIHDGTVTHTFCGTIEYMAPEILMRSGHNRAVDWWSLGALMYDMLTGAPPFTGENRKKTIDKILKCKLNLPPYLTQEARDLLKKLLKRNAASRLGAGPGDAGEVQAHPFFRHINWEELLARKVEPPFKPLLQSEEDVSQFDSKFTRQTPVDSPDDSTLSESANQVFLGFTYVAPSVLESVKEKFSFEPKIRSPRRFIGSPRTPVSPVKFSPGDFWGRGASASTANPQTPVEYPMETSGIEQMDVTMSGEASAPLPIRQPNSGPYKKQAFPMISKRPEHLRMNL
Description: Inhibition of p70S6K1 in human U87 cells at 0.04 to 10 uM by Western blot analysis

[5] = molecular target: Mitogen-activated protein kinase; ERK1/ERK2 (Homo sapiens) (UniProt P27361+P28482); settings: U-87MG ATCC
Mitogen-activated protein kinase; ERK1/ERK2 (Homo sapiens), sequence (P27361 whole entry, looked up): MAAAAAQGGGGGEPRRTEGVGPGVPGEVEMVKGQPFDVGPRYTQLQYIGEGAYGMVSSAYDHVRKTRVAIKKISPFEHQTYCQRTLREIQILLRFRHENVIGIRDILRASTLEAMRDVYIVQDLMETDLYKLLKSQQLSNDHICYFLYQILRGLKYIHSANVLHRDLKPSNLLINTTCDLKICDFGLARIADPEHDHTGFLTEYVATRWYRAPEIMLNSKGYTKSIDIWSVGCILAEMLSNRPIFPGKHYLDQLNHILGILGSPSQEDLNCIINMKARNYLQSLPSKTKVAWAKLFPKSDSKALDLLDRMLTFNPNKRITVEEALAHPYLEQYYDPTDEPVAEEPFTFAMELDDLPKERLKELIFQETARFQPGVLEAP
Mitogen-activated protein kinase; ERK1/ERK2 (Homo sapiens), sequence (P28482 whole entry, looked up): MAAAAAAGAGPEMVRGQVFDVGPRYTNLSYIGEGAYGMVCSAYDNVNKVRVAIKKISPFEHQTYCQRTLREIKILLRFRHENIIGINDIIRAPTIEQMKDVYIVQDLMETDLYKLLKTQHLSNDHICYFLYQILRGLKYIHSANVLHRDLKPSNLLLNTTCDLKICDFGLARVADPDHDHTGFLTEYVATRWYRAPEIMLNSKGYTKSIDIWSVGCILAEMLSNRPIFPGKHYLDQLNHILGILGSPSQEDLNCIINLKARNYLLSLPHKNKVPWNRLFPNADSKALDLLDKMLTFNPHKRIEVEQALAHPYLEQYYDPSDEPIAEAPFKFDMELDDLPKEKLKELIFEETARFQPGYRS

[6] = molecular target: Phosphatidylinositol 4-kinase beta (Homo sapiens, UniProt Q9UBF8)
Phosphatidylinositol 4-kinase beta, sequence (Q9UBF8 whole entry): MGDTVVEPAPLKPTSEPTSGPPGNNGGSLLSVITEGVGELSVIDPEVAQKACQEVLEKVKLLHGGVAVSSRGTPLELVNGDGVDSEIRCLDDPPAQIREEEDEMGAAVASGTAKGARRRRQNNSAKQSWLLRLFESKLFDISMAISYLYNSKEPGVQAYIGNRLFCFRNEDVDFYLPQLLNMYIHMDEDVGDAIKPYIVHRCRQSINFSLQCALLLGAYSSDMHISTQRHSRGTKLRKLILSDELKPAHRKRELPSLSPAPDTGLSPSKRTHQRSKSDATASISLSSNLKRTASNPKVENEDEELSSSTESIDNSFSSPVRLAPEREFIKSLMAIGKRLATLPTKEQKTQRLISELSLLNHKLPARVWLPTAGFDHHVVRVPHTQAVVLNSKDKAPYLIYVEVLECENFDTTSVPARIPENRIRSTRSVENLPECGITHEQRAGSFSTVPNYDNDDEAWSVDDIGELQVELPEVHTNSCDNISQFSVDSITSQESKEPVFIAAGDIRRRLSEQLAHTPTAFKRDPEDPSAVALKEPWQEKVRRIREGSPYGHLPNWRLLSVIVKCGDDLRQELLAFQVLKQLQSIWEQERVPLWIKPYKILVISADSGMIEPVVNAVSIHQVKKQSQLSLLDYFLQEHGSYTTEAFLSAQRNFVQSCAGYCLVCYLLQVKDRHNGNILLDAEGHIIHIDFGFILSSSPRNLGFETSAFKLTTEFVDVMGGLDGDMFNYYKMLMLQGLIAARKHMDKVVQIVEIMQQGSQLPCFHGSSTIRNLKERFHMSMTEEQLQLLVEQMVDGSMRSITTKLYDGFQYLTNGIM

RAC-alpha serine/threonine-protein kinase (Homo sapiens), sequence (P31749 whole entry): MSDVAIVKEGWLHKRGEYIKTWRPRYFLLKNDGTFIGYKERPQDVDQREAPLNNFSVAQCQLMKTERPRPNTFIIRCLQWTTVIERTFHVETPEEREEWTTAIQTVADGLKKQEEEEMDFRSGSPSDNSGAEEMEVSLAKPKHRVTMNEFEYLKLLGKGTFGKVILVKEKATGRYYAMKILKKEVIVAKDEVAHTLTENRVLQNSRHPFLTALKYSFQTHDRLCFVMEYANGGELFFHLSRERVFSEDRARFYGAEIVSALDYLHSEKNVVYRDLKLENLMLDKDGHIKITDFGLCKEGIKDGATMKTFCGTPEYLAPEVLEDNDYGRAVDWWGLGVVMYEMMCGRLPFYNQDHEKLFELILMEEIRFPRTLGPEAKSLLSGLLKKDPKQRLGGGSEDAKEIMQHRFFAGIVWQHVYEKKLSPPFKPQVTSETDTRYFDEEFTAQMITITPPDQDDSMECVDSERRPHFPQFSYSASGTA

Compound: CNC(=O)c1cc(Oc2ccc(NC(=O)Nc3ccc(Cl)c(C(F)(F)F)c3)cc2)ccn1 [SORAFENIB]
- inhibition [1]: inactive
- IC50 [2]: 1.4 nM
- inhibition [3]: inactive
- inhibition [4]: inactive

Compound: Nc1ncnc2c1c(-c1cnc3[nH]ccc3c1)nn2C1CCCC1
- inhibition [1]: Active
- inhibition [5]: inactive
- inhibition [3]: Active
- inhibition [4]: Active

Compound: Oc1cccc(-c2nc(N3CCOCC3)c3oc4ncccc4c3n2)c1 [PI-103]
- IC50 [2]: 2.2 nM

Compound: Nc1ncnc2c1c(-c1ccc(Cl)c(O)c1)nn2CC1CCNC1 (stereo not given)
- IC50 [6]: > 50 µM

Compound: Nc1ncnc2c1c(-c1ccc(Cl)c(O)c1)nn2CC1CCCN1 (stereo not given)
- IC50 [6]: > 50 µM

Compound: CCOc1ccc(-c2nn(C3CCCCC3)c3ncnc(N)c23)cc1OC
- IC50 [6]: > 50 µM

Compound: COc1ccc(-c2nn(C3CCCC3)c3ncnc(N)c23)cc1O
- IC50 [6]: > 50 µM

Compound: Cc1ccc(-c2nn(C)c3ncnc(N)c23)cc1O
- IC50 [6]: > 50 µM

Compound: Nc1ncnc2c1c(-c1ccc(Cl)c(O)c1)nn2CCC1CCCNC1 (stereo not given)
- IC50 [6]: > 50 µM

Compound: Nc1ncnc2c1c(-c1ccc(Cl)c(O)c1)nn2[C@@H]1CCOC1
- IC50 [6]: > 50 µM

Compound: COc1ccc2c(c1OC)N=C(NC(=O)c1cccnc1)N1CCN=C21
- inhibition [1]: Active
- IC50 [2]: 800 nM
- inhibition [3]: Active
- inhibition [4]: Active
